{"source": "patent US20120294871A1", "about": "“MODULATION OF GPCR-MEDIATED CAMP PRODUCTION THROUGH LRP6 AND ITS THERAPEUTIC APPLICATION” (THE JOHNS HOPKINS UNIVERSITY, priority 2011, published 2012)", "key": {"LRP6-Gαs interaction": {"test_system": "LRP6-Gαs interaction", "assay": "Coimmunoprecipitation and Western blotting of LRP6-associated G proteins in HEK 293 cells", "type": "cell-based, human", "experimental": "(§1) Cell Culture, Transfections, Coimmunoprecipitation, and Western Blotting Analysis. HEK293,UMR-106,C2C12, and MEF cells were maintained in Dulbecco's modified Eagle's medium (DMEM) with 10% fetal calf serum (FCS). Transfections were performed with Lipofectamine reagent (Invitrogen). Immunoprecipitations and Western blotting analysis of cell lysates were performed as described previously (37). Briefly, cells were lysed in immunoprecipitation buffer [50 mM tris-HCl (pH7.5), 150 mM NaCl, 1% Triton X-100, and 0.5% sodium deoxycholate containing protease inhibitors. The lysates were subjected to immunoprecipitation by incubation with the appropriate antibodies followed by absorption on protein G-Sepharose. The immunoprecipitates were separated by SDS-polyacrylamide gel electrophoresis (SDS-PAGE) and transferred onto a nitrocellulose membrane. Western blots were characterized with the SuperSignal West Femto Substrate system (Pierce, Thermo Fisher Scientific Inc.). Primary antibodies used for Western blotting analysis and immunoprecipitations included mouse antibody against the FLAG tag (M2, Sigma-Aldrich), rabbit antibody against VSVG (Covance), mouse antibody against the HA tag (16B12, Covance), rabbit antibody against PTH1R, (PRB-640P, Covance), rabbit antibodies against CREB and phosphorylated CREB (pCREB) (both from Upstate), and rabbit antibody against Gαs and mouse antibody against Gb1 (both from Santa Cruz Biotechnology)."}, "cAMP production": {"test_system": "cAMP production", "assay": "ICUE3 FRET biosensor, cAMP kinetics in live HEK 293 cells", "type": "cell-based, human", "settings": "PTH(1-34) 50 nM", "text": "Detection of the Temporal Dynamics of cAMP Signaling in Living Cells. The binding of cAMP to Epac induces a conformational change that liberates the catalytic domain of Epac from intrasubunit allosteric inhibition (42). A chimeric protein (ICUE3) generated by fusing the N terminus of a truncated form of Epac to enhanced CFP (ECFP) and the C terminus of Epac to citrine, an improved version of yellow fluorescent protein (YFP), was produced as previously described (43). Sandwiching these conformationally responsive elements of Epac between a FRET pair (citrine and ECFP) enables cAMP production and degradation to be monitored by detecting changes in FRET. Therefore, changes in cAMP could be monitored in real time in single live cells. Experiments were performed as previously described (41). […] The ratios of cyan-to-yellow emissions were then calculated at different time points and normalized by dividing all of the ratios by the emission ratio just before stimulation, thereby setting the basal emission ratio to 1. […] The fluorescence intensities of ECFP before (Fda) and after (Fd) citrine photobleaching and the equation E=1−(Fda/Fd) were used to calculate the FRET efficiency."}, "LRP5-Gαs interaction": {"test_system": "LRP5-Gαs interaction", "assay": "Coimmunoprecipitation and Western blotting of LRP5-associated Gαs in HEK 293 cells", "type": "cell-based, human", "settings": "HEK 293 cells with PTH1R and HA-tagged LRP5, PTH(1-34) 50 nM", "experimental": "as §1, with “Primary antibodies used for Western blotting analysis and immunoprecipitations included mouse antibody against the FLAG tag (M2, Sigma-Aldrich), rabbit antibody against VSVG (Covance), mouse antibody against the HA tag (16B12, Covance), rabbit antibody against PTH1R, (PRB-640P, Covance), rabbit antibodies against CREB and phosphorylated CREB (pCREB) (both from Upstate), and rabbit antibody against Gαs and mouse antibody against Gb1 (both from Santa Cruz Biotechnology).” left out"}, "[1]": {"test_system": "GST-fused cytoplasmic domain of LRP6 with the PKA site mutated (Thr1548 to Ala)"}, "[2]": {"test_system": "GST-fused cytoplasmic domain of LRP6 with the GSK-3 site mutated (Ser1544 to Ala)"}, "[3]": {"test_system": "T1, Glutathione S-transferase (GST)-fused cytoplasmic domain of LRP6", "T1 sequence": "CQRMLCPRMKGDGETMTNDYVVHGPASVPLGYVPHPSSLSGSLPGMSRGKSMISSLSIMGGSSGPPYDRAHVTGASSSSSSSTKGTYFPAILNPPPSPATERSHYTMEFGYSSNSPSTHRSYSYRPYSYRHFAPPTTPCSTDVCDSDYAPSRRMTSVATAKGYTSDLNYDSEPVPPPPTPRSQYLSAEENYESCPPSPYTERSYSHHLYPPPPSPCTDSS"}, "[4]": {"test_system": "Glutathione S-transferase (GST)-fused cytoplasmic domain of LRP5 [GST: P08515]", "sequence (P08515 whole entry, looked up, the tested form may be a part)": "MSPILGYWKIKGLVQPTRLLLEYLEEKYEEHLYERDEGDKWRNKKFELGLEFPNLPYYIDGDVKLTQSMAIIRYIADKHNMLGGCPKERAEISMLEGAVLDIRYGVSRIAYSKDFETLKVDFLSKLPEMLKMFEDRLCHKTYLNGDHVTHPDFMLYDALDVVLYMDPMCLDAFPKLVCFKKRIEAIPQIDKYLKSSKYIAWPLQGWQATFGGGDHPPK"}, "[5]": {"molecular_target": "T2, VSVG-tagged LRP6 (wild type) (human, UniProt O75581 20-1613)", "T2 construct": "also called WT-LRP6; WT LRP6; not shown: VSVG tag", "assay": "co-immunoprecipitation and Western blotting, HEK 293 cells"}, "[6]": {"settings": "lysis buffer containing AlF4− (100 mM AlCl3, 10 mM NaF)"}}, "data": [{"molecule": "5′-UGCCAAGAAGGCUGAGUCG-3′ (listed as RNA, chemistry not given here) [siRNA specific for axin]", "values": [{"measurement": "PTH-induced interaction between Gαs and LRP6", "setting": "LRP6-Gαs interaction; knockdown of axin vs scrambled control siRNA, PTH(1-34) 50 nM", "value": "not affected"}]}, {"molecule": "[F][Al-]([F])([F])[F]", "note": "[AlF4^−]", "values": [{"measurement": "interaction of LRP6 with Gαs", "setting": "LRP6-Gαs interaction; [6]", "value": "blocked"}, {"measurement": "interaction of LRP6 with Gβ1", "setting": "LRP6-Gαs interaction; [6]", "value": "blocked"}]}, {"molecule": "PTH(1-34): a C-terminal-truncated synthetic analog of PTH that has an anabolic effect on bone formation in humans (SVSEIQLMHNLGKHLNSMERVEWLRKKLQDVHNF)", "values": [{"measurement": "interaction between Gαs and LRP6", "setting": "LRP6-Gαs interaction; HEK 293 cells with PTH1R and VSVG-tagged LRP6, PTH(1-34) 50 nM, within S min of treatment, further enhanced at 30 min", "value": "enhanced"}, {"measurement": "time to plateau of the cyan-to-yellow emission ratio", "setting": "cAMP production", "value": "4 to 6", "unit": "min"}, {"measurement": "time to rapid change in the ratio of cyan-to-yellow emissions (indication of cAMP production)", "setting": "cAMP production", "value": "≤ 30", "unit": "s"}, {"measurement": "association of Gαs with LRP5", "setting": "LRP5-Gαs interaction", "value": "did not enhance"}]}, {"molecule": "Recombinant GSK-3", "values": [{"measurement": "in vitro kinase assay (sequential PKA and GSK-3)", "setting": "[1]", "value": "Both mutants abolished the phosphorylation of LRP6 by GSK-3"}, {"measurement": "in vitro kinase assay (sequential PKA and GSK-3)", "setting": "[2]", "value": "Both mutants abolished the phosphorylation of LRP6 by GSK-3"}, {"measurement": "in vitro kinase assay (PKA with cold ATP, then GSK-3 with [γ-32P]ATP)", "setting": "[3]", "value": "pretreatment with recombinant PKA enhanced the phosphorylation of LRP6 by GSK-3"}]}, {"molecule": "Recombinant catalytic subunit of PKA", "values": [{"measurement": "in vitro kinase assay ([γ-32P]ATP, PhosphorImager)", "setting": "[1]", "value": "Only alteration of Thr^1548 abolished the phosphorylation of LRP6C by PKA"}, {"measurement": "in vitro kinase assay ([γ-32P]ATP, PhosphorImager)", "setting": "[4]", "value": "the intracellular domain of LRP5 was not phosphorylated"}, {"measurement": "in vitro kinase assay ([γ-32P]ATP, PhosphorImager)", "setting": "[3]", "value": "the intracellular domain of LRP6 (LRP6C) was phosphorylated by PKA"}]}, {"molecule": "Gαs (endogenous, from HEK 293 cell lysates) (other, human, UniProt P63092 2-394, looked up, Present in whole-cell lysate, so other proteins (Gβγ) may be associated with it; also called Gas; αs subunit of the G protein) GCLGNSKTEDQRNEEKAQREANKKIEKQLQKDKQVYRATHRLLLLGAGESGKSTIVKQMRILHVNGFNGEGGEEDPQAARSNSDGEKATKVQDIKNNLKEAIETIVAAMSNLVPPVELANPENQFRVDYILSVMNVPDFDFPPEFYEHAKALWEDEGVRACYERSNEYQLIDCAQYFLDKIDVIKQADYVPSDQDLLRCRVLTSGIFETKFQVDKVNFHMFDVGGQRDERRKWIQCFNDVTAIIFVVASSSYNMVIREDNQTNRLQEALNLFKSIWNNRWLRTISVILFLNKQDLLAEKVLAGKSKIEDYFPEFARYTTPEDATPEPGEDPRVTRAKYFIRDEFLRISTASGDGRHYCYPHFTCAVDTENIRRVFNDCRDIIQRMHLRQYELL", "values": [{"measurement": "binding result", "setting": "[5]", "value": "binds"}]}]}
